Source: patent publication US20210255193A1, “LYSINE REACTIVE PROBES AND USES THEREOF” (The Scripps Research Institute, priority 2017, published 2021)
Each block holds one molecule with its values, some of them ahead of it.

Legend:
[1] = molecular target: T1, CNOT4 CCR4-NOT transcription complex subunit 4 (Homo sapiens, UniProt O95628); test: competitive isoTOP-ABPP; format: binding; conditions: for isoTOP-ABPP reactivity ratio at lysine O95628_K134 / isoTOP-ABPP ratio (R) at liganded lysine O95628_K134 / R value (DMSO/fragment) for probe 1 labeling: 50 uM, in vitro; for isoTOP-ABPP reactivity ratio at lysine O95628_K134 / R value (DMSO/fragment) for probe 1 labeling: 231 sol; for isoTOP-ABPP ratio (R) at liganded lysine O95628_K134: sol, 231; for R value (DMSO/fragment) for probe 1 labeling: O95628_K134
T1 construct: isoTOP-ABPP experiments performed in cell lysates (in vitro); endogenous in cells; host or cells: MDA-MB-231 soluble lysate
T1 sequence (O95628 1-575): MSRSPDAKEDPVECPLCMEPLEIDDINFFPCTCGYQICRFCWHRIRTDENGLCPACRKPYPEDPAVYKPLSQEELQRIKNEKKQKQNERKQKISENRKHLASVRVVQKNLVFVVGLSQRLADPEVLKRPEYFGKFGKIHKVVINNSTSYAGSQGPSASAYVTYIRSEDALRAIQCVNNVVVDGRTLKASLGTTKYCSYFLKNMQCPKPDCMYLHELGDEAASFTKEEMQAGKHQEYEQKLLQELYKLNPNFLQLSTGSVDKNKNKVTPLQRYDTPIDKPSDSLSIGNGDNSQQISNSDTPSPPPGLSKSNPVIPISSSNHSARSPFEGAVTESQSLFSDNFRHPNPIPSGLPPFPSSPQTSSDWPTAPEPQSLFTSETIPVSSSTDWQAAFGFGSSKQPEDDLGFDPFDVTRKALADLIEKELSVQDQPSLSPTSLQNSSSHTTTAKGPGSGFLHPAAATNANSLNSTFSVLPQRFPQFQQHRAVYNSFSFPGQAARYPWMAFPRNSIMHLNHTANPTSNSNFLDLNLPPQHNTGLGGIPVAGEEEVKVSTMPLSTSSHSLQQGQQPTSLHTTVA
Method in brief: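 Competition format: fragment (50 μM activated ester, 100 μM guanidinylating agent) versus vehicle in lysate, then lysine probe STP-alkyne at 0.1 mM for 1 h. Quantitation by light/heavy TEV-tag MS1 peak areas, reported as R.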

[2] = molecular target: T2, PLIN3 Perilipin-3 (Homo sapiens, UniProt O60664); test: competitive isoTOP-ABPP; format: binding; set-up: key to isoTOP-ABPP reactivity ratio at lysine O60664_K257 / isoTOP-ABPP reactivity ratio at lysine O60664_K140: R = MS1 peak area ratio, DMSO (heavy) / compound-treated (light); capped at 20
T2 construct: isoTOP-ABPP experiments performed in cell lysates (in vitro); endogenous in cells; host or cells: MDA-MB-231 soluble lysate
T2 sequence (O60664 1-434): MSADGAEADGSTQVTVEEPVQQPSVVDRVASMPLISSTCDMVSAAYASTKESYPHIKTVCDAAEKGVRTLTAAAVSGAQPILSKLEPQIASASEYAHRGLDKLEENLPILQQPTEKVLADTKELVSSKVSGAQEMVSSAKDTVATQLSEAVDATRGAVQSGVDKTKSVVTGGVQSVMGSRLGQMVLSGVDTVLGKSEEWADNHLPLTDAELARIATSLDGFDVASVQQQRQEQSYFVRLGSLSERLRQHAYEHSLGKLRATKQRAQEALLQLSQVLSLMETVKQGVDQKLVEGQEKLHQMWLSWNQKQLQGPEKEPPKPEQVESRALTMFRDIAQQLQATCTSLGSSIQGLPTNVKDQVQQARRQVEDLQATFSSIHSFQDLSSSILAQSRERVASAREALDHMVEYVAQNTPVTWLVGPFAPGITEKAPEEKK
Experimental: In vitro covalent fragment treatment for isoTOP-ABPP. All compounds were made up as solutions in DMSO (100×) and were used at a final concentration of 50 μM for activated esters and 100 μM for guanidinylating agents. For each profiling sample, 0.5 ml of lysate was treated with 5 μl of the 100× compound stock solution or 5 μl of DMSO. Samples were treated with activated esters for
STP-alkyne labeling and click chemistry. For concentration-dependent reactivity measurements by isoTOP-ABPP, 0.5 ml proteome aliquots were treated at ambient temperature with 1 mM STP-alkyne 1 (5 μl of 100 mM stock in DMSO) and 0.1 mM STP alkyne 1 (5 μl of 10 mM stock in DMSO), respectively. For competitive isoTOP-ABPP, after in vitro fragment treatment (detailed above), the samples were labeled for 1 h at ambient temperature with 0.1 mM STP-alkyne 1 (5 μl of 10 mM stock in DMSO). Samples were conjugated by copper-mediated azide-alkyne cycloaddition (CuAAC) to either the light (1 mM STP-alkyne or fragment treated) or heavy (0.1 mM STP-alkyne or DMSO treated) TEV tags (10 μl of 5 mM stocks in DMSO, final concentration=100 μM) using tris(2-carboxyethyl)phosphine hydrochloride
R value calculation and processing. The ratios of light and heavy MS1 peaks for each unique peptide were quantified with a CIMAGE software using default parameters (3 MS1 acquisitions per peak and signal to noise threshold set to 2.5). For reactivity measurements by isoTOP-ABPP, the R value was calculated from the ratio of MS1 peak areas, comparing the 1 mM STP alkyne sample (light TEV tag) with the 0.1 mM STP alkyne sample (heavy TEV tag). For competitive isoTOP-ABPP, the R value was calculated from the ratio of MS1 peak areas, comparing the DMSO treated sample (heavy TEV tag) with the compound treated sample (light TEV tag). […] Ratios for unique peptide entries are calculated for each experiment; overlapping peptides with the same modified lysine (for example, different charge states, MudPIT chromatographic steps or tryptic termini) are grouped together and the median ratio is reported as the final ratio (R). The peptide ratios reported by CIMAGE were further filtered to ensure the removal or correction of low-quality ratios in each individual data set. The quality filters applied were the following: removal of half tryptic peptides; for ratios with high standard deviations from the median (90% of the median or above) the lowest ratio was taken instead of the median; removal of peptides with R=20 and only a single MS2 event triggered during the elution of the parent ion; manual annotation of all the peptides with ratios of 20, removing any peptides with low quality elution profiles that remained after the previous curation steps (only done for competitive isoTOP-ABPP).
Cross-data processing for fragment screening. For compound treated samples, biological replicates of the same condition were averaged, if the standard deviation was below 60% of the mean; otherwise, for lysines with at least one R value <4 for a particular compound, the lowest value of the ratio set was taken. For lysines, where all R values for a particular compound were ≥4, the average was reported. For peptides containing several possible modified lysines, the lysine with the highest number of quantification events was used for analysis and the remaining, redundant peptides were reported as alternative modification sites. Peptides included in the aggregate dataset (those used for further bioinformatics and statistical analyses) were required to have been quantified in 2 experiments for competitive isoTOP-ABPP. Lysines were categorized as liganded, if they had at least one ratio R≥4 (hit fragments). For liganded lysines with R=20 for all liganding events, lysines were required to have been quantified with R=20 in two separate experiments and were further required to have been quantified with R<20 in one additional experiment.

isoTOP-ABPP reactivity ratio at lysine O95628_K134 [1]: 1.2
isoTOP-ABPP reactivity ratio at lysine O60664_K140 ([2]; 50 uM, 231 sol, in vitro): 1.9
isoTOP-ABPP reactivity ratio at lysine O60664_K257 ([2]; 50 uM, 231 sol, in vitro): 1.8
Structure (SMILES): O=C(CN1C(=O)c2ccccc2C1=O)Oc1c(F)c(F)c(F)c(F)c1F [fragment 27, Pentafluorophenyl 2-(1,3-dioxoisoindolin-2-yl)acetate]

Structure (SMILES): Cn1cc(CC(=O)Oc2ccc([N+](=O)[O-])cc2[N+](=O)[O-])c2ccccc21 [fragment 32, 2,4-Dinitrophenyl 2-(1-methyl-1H-indol-3-yl)acetate]
isoTOP-ABPP reactivity ratio at lysine O95628_K134 [1]: 2.1

Structure (SMILES): O=C(CCc1ccc2c(c1)OCO2)Oc1ccc([N+](=O)[O-])cc1[N+](=O)[O-] [fragment 45, 2,4-Dinitrophenyl 3-(benzo[d][1,3]dioxol-5-yl)propanoate]
isoTOP-ABPP ratio, lysine O95628_K134 ([1]; 50 uM_231_sol_in vitro): 2.8
isoTOP-ABPP ratio, lysine O60664_K140 ([2]; 50 uM_231_sol_in vitro): 2.1
isoTOP-ABPP ratio, lysine O60664_K257 ([2]; 50 uM_231_sol_in vitro): 2.5

Structure (SMILES): O=C(CCc1coc2cc(F)ccc2c1=O)Oc1ccc([N+](=O)[O-])cc1[N+](=O)[O-] [fragment 36, 2,4-Dinitrophenyl 3-(7-fluoro-4-oxo-4H-chromen-3-yl)propanoate]
isoTOP-ABPP ratio (R) at liganded lysine O60664_K140 ([2]; 50 uM, in vitro, sol, 231): 1.5
isoTOP-ABPP ratio (R) at liganded lysine O60664_K257 ([2]; 50 uM, in vitro, sol, 231): 3.9

isoTOP-ABPP ratio, lysine O95628_K134 ([1]; 100 uM_231_sol_in vitro): 1.4
isoTOP-ABPP ratio, lysine O60664_K140 ([2]; 100 uM_231_sol_in vitro): 3.0
Structure (SMILES): COC(=O)NC(=NC(=O)OCC1c2ccccc2-c2ccccc21)n1cccn1 [fragment 49, N-Methoxycarbonyl-N′-9-fluorenylmethoxycarbonyl-pyrazole-1-carboxamidine]

Structure (SMILES): O=C(CC12CC3CC(CC(C3)C1)C2)Oc1ccc([N+](=O)[O-])cc1[N+](=O)[O-] [fragment 38, 2,4-Dinitrophenyl 2-(adamantan-1-yl)acetate]
isoTOP-ABPP ratio (R) at liganded lysine O95628_K134 [1]: 1.2

R value (DMSO/fragment) for probe 1 labeling [1]: 1.2
Structure (SMILES): COc1cc(CCC(=O)Oc2c(F)c(F)c(F)c(F)c2F)cc(OC)c1OC [fragment 23, Pentafluorophenyl 3-(3,4,5-trimethoxyphenyl)propanoate]

R value (DMSO/fragment) for probe 1 labeling [1]: 1.4
R value (DMSO/fragment) for probe 1 labeling ([2]; O60664_K257, 50 uM, 231 sol, in vitro): 2.6
Structure (SMILES): Cn1cc(CC(=O)Oc2c(F)c(F)c(F)c(F)c2F)c2ccccc21 [fragment 22, Pentafluorophenyl 2-(1-methyl-1H-indol-3-yl)acetate]

isoTOP-ABPP reactivity ratio at lysine O95628_K134 [1]: 1.8
Structure (SMILES): O=C(Oc1c(F)c(F)c(F)c(F)c1F)c1ccc2ccccc2n1 [fragment 25, Pentafluorophenyl quinoline-2-carboxylate]

Structure (SMILES): O=C(Oc1ccc([N+](=O)[O-])cc1[N+](=O)[O-])c1cc(C(F)(F)F)cc(C(F)(F)F)c1 [fragment 31, 2,4-Dinitrophenyl 3,5-bis(trifluoromethyl)benzoate]
isoTOP-ABPP reactivity ratio at lysine O95628_K134 [1]: 4.3

Structure (SMILES): CC(=O)Oc1ccc([N+](=O)[O-])cc1[N+](=O)[O-] [fragment 43, 2,4-Dinitrophenyl acetate]
isoTOP-ABPP ratio (R) at liganded lysine O95628_K134 [1]: 1.3
